The values that follow come from patent US7709478B2, “Acylated 6,7,8,9-tetrahydro-5H-benzocycloheptenyl amines and their use as pharmaceutical agents” (sanofi-aventis Deutschland GmbH, priority 2001, dated 2010).

In the experiment the test system is eNOS promoter. Description: Activation of eNOS transcription (eNOS promoter-luciferase reporter gene assay). The format is cell-based, human. The conditions noted are these: 18 h incubation; for EC50: EC50 of transcription induction ratio vs compound concentration, determined graphically, human endothelial cell line stably transfected with eNOS promoter-luciferase construct; for maximal fold induction / TIR(max): maximum transcription induction ratio (luciferase activity with compound / solvent alone), human endothelial cell line with eNOS promoter-luciferase construct; for maximal fold induction: read-out: TIR(max). In short, it runs like this:
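Human endothelial cell line stably carrying a 3.5 kB eNOS promoter fragment driving firefly luciferase, treated 18 h with compound (0.5% DMSO final). Luciferase induction relative to solvent gave transcription induction ratio versus concentration; EC50 determined graphically.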

By EC50 is commonly meant the concentration giving half of the maximal effect. On to `Cc1cncc(C(=O)NC2CCCc3ccccc3C2)c1` (stereo not drawn) [Compound 91, 5-METHYL-N-(6,7,8,9-TETRAHYDRO-5H-BENZOCYCLOHEPTEN-6-YL)-NICOTINAMIDE], for which the EC50 amounted to 2300 nM and the maximal fold induction stood at 2.9.
For `Cc1cc(C(=O)NC2CCCc3ccccc3C2)c(C)n1-c1ccccc1` (stereo not drawn) [Compound 96, 2,5-DIMETHYL-1-PHENYL-1H-PYRROLE-3-CARBOXYLIC ACID (6,7,8,9-TETRAHYDRO-5H-BENZOCYCLOHEPTEN-6-YL)-AMIDE], in that order: 20 nM and 3.
For `CS(=O)(=O)Nc1cccc(C(=O)NC2CCCc3ccccc3C2)c1` (stereo not drawn) [Compound 97, 3-METHANESULFONYLAMINO-N-(6,7,8,9-TETRAHYDRO-5H-BENZOCYCLOHEPTEN-6-YL)-BENZAMIDE], in that order: 1000 nM and 2.5.
Turning to `CS(=O)(=O)Nc1cc(C(=O)NC2CCCc3ccccc3C2)ccc1Cl` (stereo not drawn) [Compound 98, 4-CHLORO-3-METHANESULFONYLAMIINO-N-(6,7,8,9-TETRAHYDRO-5H-BENZOCYCLOHEPTEN-6-YL)-BENZAMIDE], the half-maximal effective concentration (EC50) came out at 574 nM and the “TIR(max)” value amounted to 2.6.
In the case of `Cc1c(NS(C)(=O)=O)cccc1C(=O)NC1CCCc2ccccc2C1` (stereo not drawn) [Compound 99, 3-METHANESULFONYLAMINO-2-METHYL-N-(6,7,8,9-TETRAHYDRO-5H-BENZOCYCLOHEPTEN-6-YL)-BENZAMIDE], the EC50 stood at 2800 nM and the maximal fold induction amounted to 2.5.
For the molecule `O=C(NC1CCCc2ccccc2C1)c1ccc(N2CCOCC2)nc1` (stereo not drawn) [Compound 101, 6-MORPHOLIN-4-YL-N-(6,7,8,9-TETRAHYDRO-5H-BENZOCYCLOHEPTEN-6-YL)-NICOTINAMIDE], the EC50 turned out to be 6000 nM and the maximal fold induction was determined as 3.1.
Regarding `COc1ccc(C(=O)NC2CCCc3ccccc3C2)cn1` (stereo not drawn) [Compound 102, 6-METHOXY-N-(6,7,8,9-TETRAHYDRO-5H-BENZOCYCLOHEPTEN-6-YL)-NICOTINAMIDE], the concentration for a half-maximal effect (EC50) was determined as 83 nM and the maximal fold induction stood at 2.9.
Consider `O=C(NC1CCCc2ccccc2C1)c1cccc(N2CCCCC2)c1` (stereo not drawn) [Compound 106, 3-PIPERIDIN-1-YL-N-(6,7,8,9-TETRAHYDRO-5H-BENZOCYCLOHEPTEN-6-YL)-BENZAMIDE], for which the half-maximal effective concentration (EC50) was determined as 4800 nM and the maximal fold induction amounted to 2.5.
On to `O=C(NC1CCCc2ccccc2C1)c1cccc(N2CCOCC2)c1` (stereo not drawn) [Compound 108, 3-MORPHOLIN-4-YL-N-(6,7,8,9-TETRAHYDRO-5H-BENZOCYCLOHEPTEN-6-YL)-BENZAMIDE], for which the 50% effective concentration (EC50) worked out at 14000 nM and the maximal fold induction was 3.1.
For `Cc1ncsc1C(=O)NC1CCCc2ccccc2C1` (stereo not drawn) [Compound 109, 4-METHYL-THIAZOLE-5-CARBOXYLIC ACID (6,7,8,9-TETRAHYDRO-5H-BENZOCYCLOHEPTEN-6-YL)-AMIDE], in that order: 1800 nM and 2.8.
For `Cc1cnc(C(=O)N[C@H]2CCCc3ccccc3C2)c(N)n1` [Compound 114, (S)-3-AMINO-5-METHYL-PYRAZINE-2-CARBOXYLIC ACID (6,7,8,9-TETRARYDRO-5H-BENZOCYCLOHEPTEN-6-YL)-AMIDE], the EC50 came to 30 nM and the “TIR(max)” value worked out at 2.9.
As to `Cc1nc(N)c(C(=O)N[C@H]2CCCc3ccccc3C2)nc1C` [Compound 115, (S)-3-AMINO-5,6-DIMETHYL-PYRAZINE-2-CARBOXYLIC ACID (6,7,8,9-TETRAHYDRO-5H-BENZOCYCLOHEPTEN-6-YL)-AMIDE], the EC50 was found to be 20 nM and the maximal fold induction was found to be 3.
For `CNc1cncc(C(=O)N[C@H]2CCCc3ccccc3C2)n1` [Compound 116, (S)-6-METHYLAMINO-PYRAZINE-2-CARBOXYLIC ACID (6,7,8,9-TETRAHYDRO-5H-BENZOCYCLOHEPTEN-6-YL)-AMIDE], in that order: 150 nM and 2.9.
For `CN(C)c1ccc(C(=O)N[C@H]2CCCc3ccccc3C2)cn1` [Compound 117, (S)-6-DIMETHYLAMINO-N-(6,7,8,9-TETRAHYDRO-5H-BENZOCYCLOHEPTEN-6-YL)-NICOTINAMIDE], in that order: 136 nM and 3.
Turning to `O=C(N[C@H]1CCCc2ccccc2C1)c1ccc(N2CCCC2)nc1` [Compound 118, (S)-6-PYRROLIDIN-1-YL-N-(6,7,8,9-TETRAHYDRO-5H-BENZOCYCLOHEPTEN-6-YL)-NICOTINAMIDE], the half-maximal effective concentration (EC50) was determined as 140 nM and the maximal fold induction is 3.
For `Cc1ccc(C(=O)N[C@H]2CCCc3ccccc3C2)cc1NS(C)(=O)=O` [Compound 119, (S)-3-METHANESULFONYLAMINO-4-METHYL-N-(6,7,8,9-TETRAHYDRO-5H-BENZOCYCLOHEPTEN-6-YL)-BENZAMIDE], in that order: 230 nM and 3.
For `Cc1nc(C2CC2)sc1C(=O)N[C@H]1CCCc2ccccc2C1` [Compound 120, (S)-2-CYCLOPROPYL-4-METHYL-THIAZOLE-5-CARBOXYLIC ACID (6,7,8,9-TETRAHYDRO-5H-BENZOCYCLOHEPTEN-6-YL)-AMIDE], in that order: 41 nM and 3.1.
With `Cc1cc(C(=O)N[C@H]2CCCc3ccccc3C2)n(C)n1` [Compound 122, (S)-2,5-DIMETHYL-2H-PYRAZOLE-3-CARBOXYLIC ACID (6,7,8,9-TETRAHYDRO-5H-BENZOCYCLOHEPTEN-6-YL)-AMIDE], the 50% effective concentration (EC50) came out at 15 nM and the maximal fold induction was 2.85.
For `O=C(N[C@H]1CCCc2ccccc2C1)c1ccc(OCC(F)(F)F)cc1` [Compound 125, (S)—N-(6,7,8,9-TETRAHYDRO-5H-BENZOCYCLOHEPTEN-6-YL)-4-(2,2,2-TRIFLUORO-ETHOXY)-BENZAMIDE], in that order: 40 nM and 3.
For `O=C(N[C@H]1CCCc2ccccc2C1)c1ccc2nc[nH]c2c1` [Compound 126, (S)-3H-BENZOIMIDAZOLE-5-CARBOXYLIC ACID (6,7,8,9-TETRAHYDRO-5H-BENZOCYCLOHEPTEN-6-YL)-AMIDE], in that order: 351 nM and 2.9.
For `CN1CC(=O)Nc2cc(C(=O)NC3CCCc4ccccc4C3)ccc21` (stereo not drawn) [Compound 127, 1-METHYL-3-OXO-1,2,3,4-TETRAHYDRO-QUINOXALINE-6-CARBOXYLIC ACID (6,7,8,9-TETRAHYDRO-5H-BENZOCYCLOHEPTEN-6-YL)-AMIDE], in that order: 4900 nM and 2.7.
As to `Nc1nc(Cl)ccc1C(=O)N[C@H]1CCCc2ccccc2C1` [Compound 128, (S)-2-AMINO-6-CHLORO-N-(6,7,8,9-TETRAHYDRO-5H-BENZOCYCLOHEPTEN-6-YL)-NICOTINAMIDE], the EC50 turned out to be 2 nM and the maximal fold induction was found to be 3.1.
For `Cc1nc(N(C)C)sc1C(=O)N[C@H]1CCCc2ccccc2C1` [Compound 129, (S)-2-DIMETHYLAMINO-4-METHYL-THIAZOLE-5-CARBOXYLIC ACID (6,7,8,9-TETRAHYDRO-5H-BENZOCYCLOHEPTEN-6-YL)-AMIDE], in that order: 100 nM and 3.1.
In the case of `COc1ccc(C(=O)N[C@H]2CCCc3ccccc3C2)cn1` [Compound 130, (S)-6-METHOXY-N-(6,7,8,9-TETRAHYDRO-5H-BENZOCYCLOHEPTEN-6-YL)-NICOTINAMIDE], the EC50 was found to be 110 nM and the maximal fold induction stood at 3.1.
Regarding `Cc1ccc(C(=O)N[C@H]2CCCc3ccccc3C2)cc1N(C)C` [Compound 131, (S)-3-DIMETHYLAMINO-4-METHYL-N-(6,7,8,9-TETRAHYDRO-5H-BENZOCYCLOHEPTEN-6-YL)-BENZAMIDE], the EC50 is 440 nM and the maximal fold induction turned out to be 3.1.
For `O=C(N[C@H]1CCCc2ccccc2C1)c1cccc(N2CCCC2)c1` [Compound 132, (S)-3-PYRROLIDIN-1-YL-N-(6,7,8,9-TETRAHYDRO-5H-BENZOCYCLOHEPTEN-6-YL)-BENZAMIDE], in that order: 50 nM and 3.1.
For `COCc1ccc(C(=O)N[C@H]2CCCc3ccccc3C2)cn1` [Compound 133, (S)-6-METHOXYMETHYL-N-(6,7,8,9-TETRAHYDRO-5H-BENZOCYCLOHEPTEN-6-YL)-NICOTINAMIDE], in that order: 128 nM and 3.1.
For `O=C(NC1CCCc2ccccc2C1)c1cnc2c(c1)CCCC2` (stereo not drawn) [Compound 134, 5,6,7,8-TETRAHYDRO-QUINOLINE-3-CARBOXYLIC ACID (6,7,8,9-TETRAHYDRO-5H-BENZOCYCLOHEPTEN-6-YL)-AMIDE], in that order: 3000 nM and 3.5.
As to `CNc1cc(C(=O)NC2CCCc3ccccc3C2)ccc1C` (stereo not drawn) [Compound 135, 4-METHYL-3-METHYLAMINO-N-(6,7,8,9-TETRAHYDRO-5H-BENZOCYCLOHEPTEN-6-YL)-BENZAMIDE], the EC50 was determined as 589 nM and the maximal fold induction came out at 3.
`Nc1nc(Cl)ccc1C(=O)NC1CCCc2ccccc2C1` (stereo not drawn) [Compound 137, 2-AMINO-6-CHLORO-N-(6,7,8,9-TETRAHYDRO-5H-BENZOCYCLOHEPTEN-6-YL)-NICOTINAMIDE]: the EC50 stood at 90 nM and the maximal fold induction was determined as 3.
For `NS(=O)(=O)c1cc(C(=O)NC2CCCc3ccccc3C2)ccc1Cl` (stereo not drawn) [Compound 138, 4-CHLORO-3-SULFAMOYL-N-(6,7,8,9-TETRAHYDRO-5H-BENZOCYCLOHEPTEN-6-YL)-BENZAMIDE], in that order: 10000 nM and 3.
For `CS(=O)(=O)c1cccc(C(=O)NC2CCCc3ccccc3C2)c1` (stereo not drawn) [Compound 139, 3-METHANESULFONYL-N-(6,7,8,9-TETRAHYDRO-5H-BENZOCYCLOHEPTEN-6-YL)-BENZAMIDE], in that order: 1900 nM and 3.
For `Cc1ccc(S(C)(=O)=O)cc1C(=O)NC1CCCc2ccccc2C1` (stereo not drawn) [Compound 140, 5-METHANESULFONYL-2-METHYL-N-(6,7,8,9-TETRAHYDRO-5H-BENZOCYCLOHEPTEN-6-YL)-BENZAMIDE], in that order: 1300 nM and 3.
